Reference: patent US20250136614A1, “2,7-SUBSTITUTED PYRROLO[2,1-F][1,2,4]TRIAZINE COMPOUND HAVING PROTEIN KINASE INHIBITORY ACTIVITY” (Magicbullettherapeutics Co., Ltd., priority 2021, published 2025)

How the values were obtained:
Format in all cases: cell-based
MDA-MB-231 = assay: Cancer cell growth inhibition (CellTiter-Glo, 72 hours); conditions: Homo sapiens, MDA-MB-231 cells, read-out: GI50s (μM) MDA-MB-231
Procedure: (§1) Seeding 3000 cells per well in a 96-well plate. After cell stabilization, treat the cells with compounds diluted in 0.5% DMSO at a ⅓ serial dilution and culture for 72 hours. Following treatment with CellTiter-Glo, luminescence is produced only in the presence of ATP, as luciferase degrades luciferin. Luminescence values were measured using Envision (PerkinElmer). Based on the measured luminescence values, the concentration of compounds causing cell death was calculated to determine the GI50 value.
(§2) The activity values were categorized into three levels • A: IC50<1 μM • B: 1 μM≤IC50<10 μM, • C: IC50≥10 μM

H23 = assay: as above; conditions: Homo sapiens, NCI-H23, H23 cells, read-out: GI50s (μM) H23
Procedure: as §1, §2

H358 = assay: as above; conditions: Homo sapiens, NCI-H358, H358 cells, read-out: GI50s (μM) H358
Procedure: as §1, §2

HCT116 = assay: as above; conditions: Homo sapiens, HCT-116, HCT116 cells, read-out: GI50s (μM) HCT116
Procedure: as §1, §2

H1975 = assay: as above; conditions: Homo sapiens, NCI-H1975, H1975 cells, read-out: GI50s (μM) H1975
Procedure: as §1, §2

colo205 = assay: as above; conditions: Homo sapiens, COLO 205, colo205 cells, read-out: GI50s (μM) colo205
Procedure: as §1, §2

Ba/F3 FLT3 (ITD/D835Y) = target: T1, Ba/F3 FLT3 (ITD/D835Y) (Homo sapiens, UniProt P36888, D835Y, cells depend on it, form not given); assay: Ba/F3 cell growth inhibition (CellTiter-Glo, 72 hours); conditions: read-out: Ba/F3 GI50s (μM) FLT3 (ITD/D835Y)
T1 sequence (P36888 1-993 D835Y): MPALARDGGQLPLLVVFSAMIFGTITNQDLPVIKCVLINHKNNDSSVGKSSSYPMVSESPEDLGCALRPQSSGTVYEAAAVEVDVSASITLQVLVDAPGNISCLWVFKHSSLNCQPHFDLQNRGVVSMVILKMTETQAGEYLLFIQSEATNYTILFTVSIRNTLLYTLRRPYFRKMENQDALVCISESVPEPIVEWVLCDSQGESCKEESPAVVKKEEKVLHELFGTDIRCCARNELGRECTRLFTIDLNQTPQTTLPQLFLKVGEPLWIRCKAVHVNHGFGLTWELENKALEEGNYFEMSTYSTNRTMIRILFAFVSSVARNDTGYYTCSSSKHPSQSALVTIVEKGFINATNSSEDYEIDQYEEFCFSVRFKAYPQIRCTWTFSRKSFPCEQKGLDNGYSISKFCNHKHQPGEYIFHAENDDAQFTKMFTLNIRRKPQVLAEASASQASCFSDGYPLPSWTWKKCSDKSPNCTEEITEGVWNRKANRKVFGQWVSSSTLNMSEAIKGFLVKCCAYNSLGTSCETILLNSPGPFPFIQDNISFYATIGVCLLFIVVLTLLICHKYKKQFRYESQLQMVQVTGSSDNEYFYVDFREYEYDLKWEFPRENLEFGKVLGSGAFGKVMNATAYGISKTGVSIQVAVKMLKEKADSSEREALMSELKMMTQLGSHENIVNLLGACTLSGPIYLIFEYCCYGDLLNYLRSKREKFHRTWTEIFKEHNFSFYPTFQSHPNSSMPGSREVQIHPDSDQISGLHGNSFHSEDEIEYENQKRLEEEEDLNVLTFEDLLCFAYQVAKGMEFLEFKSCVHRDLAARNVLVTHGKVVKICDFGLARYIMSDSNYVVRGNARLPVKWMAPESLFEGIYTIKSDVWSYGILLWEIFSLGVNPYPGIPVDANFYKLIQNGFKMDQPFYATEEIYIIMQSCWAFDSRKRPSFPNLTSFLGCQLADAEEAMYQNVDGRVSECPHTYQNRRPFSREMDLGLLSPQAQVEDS
Procedure: as §1, with “[…]” for “0.5%”
(§3) The activity values were categorized into three levels. • A: IC50<1 μM • B: 1 μM≤IC50<10 μM, • C: IC50≥10 μM

Ba/F3 parental = assay: as above; conditions: Mus musculus, BaF3, Ba/F3 parental cells, read-out: Ba/F3 GI50s (μM) parental
Procedure: as §1, with “[…]” for “0.5%”
as §3

CN1CCCn2cc(cn2)Nc2ncc3ccc(n3n2)-c2ccc(cc2)OCC1 [Example 2]
≥ 10 µM: IC50 (MDA-MB-231)
< 1 µM: IC50 (H23) | IC50 (H358) | IC50 (HCT116) | GI50 (Ba/F3 FLT3 (ITD/D835Y))
1 to 10 µM: IC50 (H1975) | IC50 (colo205) | IC50 (Ba/F3 parental)

CC(=O)N1CCCn2cc(cn2)Nc2ncc3ccc(n3n2)-c2ccc(cc2)OCC1 [Example 3, 1-((2^1Z,4^4E)-4^1H-11-oxa-3,8-diaza-2(7,2)-pyrrolo[2,1-f1][1,2,4]triazina-4(4,1)-pyrazola-1(1,4)-benzenacycloundecaphane-8-yl)ethan-1-one]
1 to 10 µM: IC50 (MDA-MB-231) | IC50 (H23) | IC50 (H358) | IC50 (H1975) | IC50 (colo205) | IC50 (Ba/F3 parental)
< 1 µM: IC50 (HCT116) | GI50 (Ba/F3 FLT3 (ITD/D835Y))

COc1cccc(NC(=O)N2CCCn3cc(cn3)Nc3ncc4ccc(n4n3)-c3ccc(cc3)OCC2)c1 [Example 7, (2^1Z,4^4E)-N-(3-methoxyphenyl)-4^1H-11-oxa-3,8-diaza-2(7,2)-pyrrolo[2,1-f][1,2,4]triazina-4(4,1)-pyrazola-1(1,4)-benzenecycloundecaphane-8-carboxamide]
1 to 10 µM: IC50 (H23) | IC50 (H358) | IC50 (HCT116) | IC50 (H1975)
≥ 10 µM: IC50 (MDA-MB-231) | IC50 (colo205) | IC50 (Ba/F3 parental)
< 1 µM: GI50 (Ba/F3 FLT3 (ITD/D835Y))

CS(=O)(=O)N1CCCn2cc(cn2)Nc2ncc3ccc(n3n2)-c2ccc(cc2)OCC1 [Example 9, (2^1Z,4^4E)-8-(methylsulfonyl)-4^1H-11-oxa-3,8-diaza-2(7,2)-pyrrolo[2,1-f][1,2,4]triazina-4(4,1)-pyrazola-1(1,4)-benzenecycloundecaphane]
≥ 10 µM: IC50 (MDA-MB-231)
< 1 µM: IC50 (H358) | IC50 (HCT116) | GI50 (Ba/F3 FLT3 (ITD/D835Y))
1 to 10 µM: IC50 (H23) | IC50 (H1975) | IC50 (colo205) | IC50 (Ba/F3 parental)

O=C1CCCCCCn2cc(cn2)-c2ccc3cnc(nn23)Nc2ccc(cc2)OCCCN1 [Example 17, (1^4Z,2^1Z)-1′H-5-oxa-3,9-diaza-2(7,2)-pyrrolo[2,1-f][1,2,4]triazina-1(4,1)-pyrazola-4(1,4)-benzenacyclohexadecaphan-10-one]
≥ 10 µM: IC50 (MDA-MB-231) | IC50 (H358) | IC50 (colo205) | IC50 (Ba/F3 parental)
1 to 10 µM: IC50 (H23) | IC50 (HCT116) | IC50 (H1975) | GI50 (Ba/F3 FLT3 (ITD/D835Y))

O=C1CCCCCCOc2ccc(cc2F)-c2ccc3cnc(nn23)Nc2ccc(cc2)OCCCN1 [Example 20, (Z)-13-fluoro-5,17-dioxa-3,9-diaza-2(7,2)-pyrrolo[2,1-f][1,2,4]triazina-1,4(1,4)-dibenzenacycloheptadecaphan-10-one]
≥ 10 µM: IC50 (MDA-MB-231) | IC50 (H23) | IC50 (H358) | IC50 (HCT116) | IC50 (H1975) | IC50 (colo205) | IC50 (Ba/F3 parental)
1 to 10 µM: GI50 (Ba/F3 FLT3 (ITD/D835Y))

O=C1CCCCCCOc2ccc(cc2)-c2ccc3cnc(nn23)Nc2ccc(cc2)N2CCN(CCCN1)CC2 [Example 23, (Z)-17-oxa-3,9-diaza-2(7,2)-pyrrolo[2,1-f][1,2,4]triazina-5(1,4)-piperazina-1,4(1,4)-dibenzenacycloheptadecaphan-10-one]
≥ 10 µM: IC50 (MDA-MB-231) | IC50 (Ba/F3 parental)
< 1 µM: IC50 (H23) | GI50 (Ba/F3 FLT3 (ITD/D835Y))
1 to 10 µM: IC50 (H358) | IC50 (HCT116) | IC50 (H1975) | IC50 (colo205)

O=C1CCCCCCOc2ccc(cc2)-c2ccc3cnc(nn23)Nc2ccc(cc2)N2CCN1CC2 [Example 24, (Z)-13-oxa-3-aza-2(7,2)-pyrrolo[2,1-f][1,2,4]triazina-5(1,4)-piperazina-1,4(1,4)-dibenzenacyclotridecaphan-6-one]
≥ 10 µM: IC50 (MDA-MB-231)
1 to 10 µM: IC50 (H23) | IC50 (H358) | IC50 (HCT116) | IC50 (H1975) | IC50 (colo205) | GI50 (Ba/F3 FLT3 (ITD/D835Y)) | IC50 (Ba/F3 parental)

O=C1CCCCOc2ccc(cc2)-c2ccc3cnc(nn23)Nc2cnn(c2)C2CCN1CC2 [Example 25, (2^1Z,4^4E)-4^1H-11-oxa-3-aza-2(7,2)-pyrrolo[2,1-f][1,2,4]triazina-5(4,1)-piperidina-4(4,1)-pyrazola-1(1,4)-benzenacycloundecaphan-6-one]
≥ 10 µM: IC50 (MDA-MB-231) | IC50 (H358) | IC50 (H1975) | IC50 (colo205) | IC50 (Ba/F3 parental)
< 1 µM: IC50 (HCT116) | GI50 (Ba/F3 FLT3 (ITD/D835Y))
1 to 10 µM: IC50 (H23)

O=C1CCCCOc2ccc(cc2)-c2ccc3cnc(nn23)Nc2cnn(c2)C2CCN(CCCN1)CC2 [Example 26, (2^1Z,4^4E)-4^1H-15-oxa-3,9-diaza-2(7,2)-pyrrolo[2,1-f1][1,2,4]triazina-5(4,1)-piperidina-4(4,1)-pyrazola-1(1,4)-benzenacyclopentadecaphan-10-one]
< 1 µM: IC50 (H23) | IC50 (H358) | IC50 (HCT116) | IC50 (H1975) | IC50 (colo205) | GI50 (Ba/F3 FLT3 (ITD/D835Y))
≥ 10 µM: IC50 (MDA-MB-231) | IC50 (Ba/F3 parental)

O=C1CCCCCCOc2ccc(cc2)-c2ccc3cnc(nn23)Nc2cnn(c2)C2CCN(CCCN1)CC2 [Example 27, (2^1Z,4^4E)-4^1H-17-oxa-3,9-diaza-2(7,2)-pyrrolo[2,1-f1][1,2,4]triazina-5(4,1)-piperidina-4(4,1)-pyrazola-1(1,4)-benzenacycloheptadecaphan-10-one]
1 to 10 µM: IC50 (MDA-MB-231) | IC50 (H23) | IC50 (H358) | IC50 (Ba/F3 parental)
≥ 10 µM: IC50 (HCT116) | IC50 (H1975) | IC50 (colo205)
< 1 µM: GI50 (Ba/F3 FLT3 (ITD/D835Y))

O=C1COCCOc2ccc(cc2)-c2ccc3cnc(nn23)Nc2ccc(cc2)OCCCN1 [Example 28, (Z)-5,12,15-trioxa-3,9-diaza-2(7,2)-pyrrolo[2,1-f][1,2,4]triazina-1,4(1,4)-dibenzenacyclopentadecaphan-10-one]
≥ 10 µM: IC50 (MDA-MB-231)
< 1 µM: GI50 (Ba/F3 FLT3 (ITD/D835Y)) | IC50 (Ba/F3 parental)
1 to 10 µM: IC50 (H23) | IC50 (H358) | IC50 (HCT116) | IC50 (H1975) | IC50 (colo205)

O=C1CCCCCCOc2ccc(cc2)-c2ccc3cnc(nn23)Nc2ccc(cc2)OCCCN1 [Example 29, (Z)-5,17-dioxa-3,9-diaza-2(7,2)-pyrrolo[2,1-f][1,2,4]triazina-1,4(1,4)-dibenzenacycloheptadecaphan-10-one]
1 to 10 µM: IC50 (H23) | IC50 (H358) | IC50 (HCT116) | IC50 (H1975) | IC50 (colo205) | GI50 (Ba/F3 FLT3 (ITD/D835Y))
≥ 10 µM: IC50 (MDA-MB-231) | IC50 (Ba/F3 parental)

c1cc2ccc1Nc1ncc3ccc(n3n1)-c1ccc(cc1)OCCNCCCO2 [Example 30, (Z)-5,12-dioxa-3,9-diaza-2(7,2)-pyrrolo[2,1-f][1,2,4]triazina-1,4(1,4)-dibenzenacyclododecaphane]
1 to 10 µM: IC50 (MDA-MB-231) | IC50 (H23) | IC50 (H358) | IC50 (HCT116) | IC50 (H1975) | IC50 (colo205)
≥ 10 µM: IC50 (Ba/F3 parental)
< 1 µM: GI50 (Ba/F3 FLT3 (ITD/D835Y))
